Experiments:
[1] = target: T1, FKBP12-EGFP (Homo sapiens, UniProt P62942); experiment: Fluorescence quantification of FKBP12-EGFP levels in HEK293T cells; assay type: cell-based; details: HEK293T CRISPR activation cells with FBXO22-activating sgRNAs; 2 μM, 24 hours
T1 construct: expressed in transfected cells
Experimental: FIGS. 1A-1E show an E3 ligase focused CRISPR-Cas9 transcriptional activation screen identifies FBXO22 that supports 22-SLF-induced reduction in FKBP12-EGFP expression levels. FIG. 1A is a schematic representation of the steps in the CRISPR-Cas9 transcriptional activation screen. […] FIG. 1C is a volcano plot showing the E3 ligase focused CRISPR-Cas9 transcriptional activation screen for FKBP12-EGFP degradation after treatment of 2 μM 22-SLF in HEK293T CRISPR-Cas9 transcriptional activation cells for 24 hours. […] The statistical significance was evaluated through unpaired two-tailed Student's t-tests, comparing cells transduced with FBXO22 sgRNA to control sgRNA. Statistical significance denoted ****P<0.0001. […] The statistical significance was evaluated through unpaired two-tailed Student's t-tests, comparing cells treated with 22-SLF to DMSO. Statistical significance denoted as ***P<0.001 and ns: not significant.
FIGS. 6A-6E show generation of CRISPR-Cas9 transcriptional activation cells for the discovery of E3 ligases supporting the degradation of FKBP12-EGFP. […] The statistical significance was evaluated through unpaired two-tailed Student's t-tests, comparing cells treated with Len-SLF or SLF to DMSO. […] The statistical significance was evaluated through unpaired two-tailed Student's t-tests, comparing cells transduced with IL-1β sgRNA to control sgRNA. […]

[2] = system: FKBP12 (mouse FBXO22); experiment: FKBP12 degradation in HEK293T cells expressing mouse FBXO22; assay type: cell-based; details: HEK293T cells
Description: (§1) FIGS. 3A-3H show FBXO22 C227 and C228 are involved in 22-SLF-mediated degradation of FKBP12. […] Among 5,650 quantified IA-DTB-modified peptides, four cysteines were identified on FBXO22 (C83, C117, C228, and C365). […] Data are presented as the mean values (n=2 biological independent samples for DMSO treatment; n=3 biological independent samples for 22-SLF Treatment). […] The bag graph represents quantification of the FLAG-FKBP12/HSP90 protein content. Data are presented as mean values (n=2 biological independent samples). […] The bar graph represents quantification of the FLAG-FKBP12/HSP90 protein content. Data are presented as the mean values (n=2 biological independent samples).
Intriguingly, the peptide sequence containing the two consecutive cysteines (C227 and C228) is identical between human and mouse (FIG. 3f). To explore whether mouse FBXO22 can facilitate 22-SLF-induced FKBP12 degradation and if the conserved cysteines (C226 and C227 in mouse FBXO22) are pivotal, HEK293T cells expressing mouse FBXO22 wildtype, C226A, C227A, and C226AC227A, were generated.

[3] = target: T2, FKBP12 and FBXO22 (Homo sapiens, UniProt P62942+Q8NEZ5); experiment: Coimmunoprecipitation of HA-FBXO22 with FLAG-FKBP12 (ternary complex); assay type: cell-based; details: HEK293T cells, with MG132
T2 construct: expressed in transfected cells; host or cells: HEK293T
T2 sequence (P62942 2-108): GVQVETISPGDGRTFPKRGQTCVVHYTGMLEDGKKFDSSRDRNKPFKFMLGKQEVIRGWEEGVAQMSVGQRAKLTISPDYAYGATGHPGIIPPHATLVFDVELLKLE
T2 sequence (Q8NEZ5 whole entry): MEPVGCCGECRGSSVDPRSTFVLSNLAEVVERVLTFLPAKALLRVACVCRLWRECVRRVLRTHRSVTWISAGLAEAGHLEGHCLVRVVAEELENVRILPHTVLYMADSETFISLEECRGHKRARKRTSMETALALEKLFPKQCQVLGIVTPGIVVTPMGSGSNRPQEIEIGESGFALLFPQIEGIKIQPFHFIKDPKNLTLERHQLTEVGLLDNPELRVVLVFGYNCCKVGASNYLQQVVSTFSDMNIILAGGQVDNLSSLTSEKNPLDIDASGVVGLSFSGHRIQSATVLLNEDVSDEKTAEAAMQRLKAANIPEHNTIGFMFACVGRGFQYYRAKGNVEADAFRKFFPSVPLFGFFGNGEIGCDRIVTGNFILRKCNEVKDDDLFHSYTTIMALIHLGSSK
T2 sequence (P63208 whole entry partner): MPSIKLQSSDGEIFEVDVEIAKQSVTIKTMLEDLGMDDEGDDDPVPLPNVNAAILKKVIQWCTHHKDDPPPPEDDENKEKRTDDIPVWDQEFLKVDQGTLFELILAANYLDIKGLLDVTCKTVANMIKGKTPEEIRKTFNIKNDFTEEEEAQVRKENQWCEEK
Description: (§2) FIGS. 4A-4C show 22-SLF induces the formation of a ternary complex involving 22-SLF, FKBP12 and FBXO22. […] The bar graph represents quantification of the immunoprecipitated HA-FBXO22 protein content compared to the HA-FBXO22 protein in whole cell lysates (WCL). Data are presented as the mean values (n=2 biological independent samples). […] Data are presented as the mean values (n=2 biological independent samples).
(§3) The formation of ternary complex by degraders with their target protein and E3 ligase drives the subsequent target degradation.

[4] = target: T3, FKBP12 and FBXO22 (Homo sapiens, UniProt P62942+Q8NEZ5, C227A/C228A); experiment: as above; assay type: cell-based; details: HEK293T cells, with MG132
T3 construct: expressed in transfected cells; host or cells: HEK293T
T3 sequence (P62942 2-108): as the sequence (P62942 2-108) above
T3 sequence (Q8NEZ5 whole entry C227A/C228A): as the sequence (Q8NEZ5 whole entry) above, with C227A, C228A counted along it
T3 sequence (P63208 whole entry partner): as the sequence (P63208 whole entry partner) above
Description: as §2, §3

[5] = system: FKBP12 and FBXO22; experiment: as above; assay type: cell-based, human; details: HEK293T cells, with MG132
Description: as §2, §3

[6] = target: FKBP12 (Homo sapiens, UniProt P62942); experiment: Global proteomic analysis in HEK293T cells expressing FBXO22 wildtype or C227AC228A; assay type: cell-based; parameters: expressed in transfected cells; host or cells: HEK293T; details: 0.5 μM, 24 hours
Chain of FKBP12 (P62942 whole entry): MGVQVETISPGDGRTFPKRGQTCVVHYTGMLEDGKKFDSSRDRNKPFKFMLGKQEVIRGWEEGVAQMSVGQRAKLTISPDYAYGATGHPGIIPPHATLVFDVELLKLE
Description: as §1
FIGS. 9A-9B show FBXO22 C227 and C228 are involved in 22-SLF-mediated degradation of FKBP12.
Global proteomic analysis in FBXO22 wildtype- and C227AC228A-expressing HEK293T cells was conducted, comparing the effects of 22-SLF treatment on the expression level of FKBP12. […] Using this predicted human FBXO22 structure, a model structure of the interaction with the electrophilic portion of 22-SLF was conducted.

T1 sequence (P62942 whole entry): as above

SMILES: CCC(C)(C)C(=O)C(=O)N1CCCC[C@H]1C(=O)O[C@H](CCc1ccc(OC)c(OC)c1)c1cccc(OCC(=O)NCCCOCCOCCOCCCN(C(=O)CCl)C(C(=O)NCc2ccccc2)c2nc3ccccc3s2)c1 (stereo partly shown) [22-SLF]
- FKBP12-EGFP expression in FBXO22-activated cells [1]: loss of FKBP12-EGFP expression
- FKBP12 degradation, mouse FBXO22 single mutants C226A and C227A [2]: partially impeded degradation
- Ternary complex formation, FBXO22 wild type [3]: HA-FBXO22 co-immunoprecipitated with FLAG-FKBP12
- Ternary complex assembly, FBXO22 C227AC228A double mutant [4]: nearly completely abolished
- Ternary complex assembly, FBXO22 C227A or C228A single mutant [5]: partially hindered
- FKBP12 degradation in global proteomics, FBXO22 C227AC228A cells ([6]; HEK293T HA-FBXO22 C227AC228A): no degradation observed
- Proteins degraded among 7,936 quantified proteins, FBXO22 wildtype cells ([6]; HEK293T HA-FBXO22 wildtype): FKBP12 was the only protein degraded
